We go through 3 molecules from patent publication US20220282271A1, “HERBICIDE RESISTANT PLANTS AND METHODS OF MAKING AND USING” (OFFICE OF INNOVATION ADVANCEMENT AND COMMERCIALIZATION, priority 2019, published 2022).

Molecules are shown by their SMILES. Like-named read-outs stand apart in the source and are kept apart here. Bounds are passed on as bounds.

Assay [1] concerns the target T1, recombinant variant E. indica PPO1 A212T (Eleusine indica, UniProt A0A6G5XNV7, A212T). Put plainly: In vitro PPO enzyme activity inhibition, variant PPO1 A212T. It is filed as biochemical. Conditions: for inhibition at 10 µM: read-out: Variant E. indica PPO1 A212T % inhibition. The text has this:
(§1) Effects of A212T substitution were studied using the E. indica backbone. The wild-type E. indica PPO1 and the E. indica PPO1 A212T variants were synthesized de novo and subcloned into pRSetB plasmid (Invitrogen, Carlsbad, Calif.). The complete description of expression and purification of E. indica PPO1 and E. indica PPO1 A212T variant proteins were referenced to the method described for PPO2 by Rangani et al. (2019, Frontiers in Plant Sci., 10:568). Six PPO inhibitors, belonging to five different chemical families, were evaluated on the PPO enzyme activity at a concentrations ranging from 5.00×10^−5M to 5.12×10^−12M. Oxadiazon, sulfentrazone, saflufenacil and lactofen are from the class of oxadiazole, triazolinone, pyrimidinedione, and diphenyl ether, respectively. Flumioxazin and trifludimoxazin are from the same chemical family, N-phenylphthalimide. […] The assay was replicated twice.

For assay [2], the target named is T2, recombinant wild-type E. indica PPO1 (Eleusine indica, UniProt A0A6G5XNV7).
T2 sequence (A0A6G5XNV7 1-529): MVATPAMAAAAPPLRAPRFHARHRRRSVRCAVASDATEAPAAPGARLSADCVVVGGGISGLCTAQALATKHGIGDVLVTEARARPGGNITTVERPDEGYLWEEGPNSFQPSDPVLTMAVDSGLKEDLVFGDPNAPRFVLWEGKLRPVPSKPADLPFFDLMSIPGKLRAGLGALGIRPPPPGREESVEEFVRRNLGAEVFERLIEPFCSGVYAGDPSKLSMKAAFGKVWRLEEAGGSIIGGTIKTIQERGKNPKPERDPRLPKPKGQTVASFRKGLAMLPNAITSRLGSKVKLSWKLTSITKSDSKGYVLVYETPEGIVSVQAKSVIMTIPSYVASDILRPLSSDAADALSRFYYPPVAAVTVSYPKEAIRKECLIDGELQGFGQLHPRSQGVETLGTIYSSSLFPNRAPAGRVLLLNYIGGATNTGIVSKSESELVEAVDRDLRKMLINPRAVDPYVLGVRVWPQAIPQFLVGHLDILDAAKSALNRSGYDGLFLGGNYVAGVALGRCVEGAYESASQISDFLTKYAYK
In words: In vitro PPO enzyme activity inhibition, wild-type PPO1. It is filed as biochemical.
From the text: as §1, with “Six PPO inhibitors, belonging to five different chemical families, were evaluated on the PPO enzyme activity at a concentrations ranging from 5.00×10^−5M to 5.12×10^−12M.” left out

In assay [3] the test system is Eleusine indica biotypes (S, R1, R2). In words: Herbicide rate screening assay (greenhouse, foliar-applied, visual injury). Particulars: for I50, estimated rate required to reduce Eleusine indica biotype by 50% (Visual Control/Injury) / I90, estimated rate required to reduce Eleusine indica biotype by 90% (Visual Control/Injury): injury scores 14 days after treatment; for Parameter estimate a of sigmoidal model y = a/(1 + exp(−(x − x0)/b)) for percent injury / Parameter estimate b of sigmoidal model y = a/(1 + exp(−(x − x0)/b)) for percent injury / Parameter estimate x0 of sigmoidal model y = a/(1 + exp(−(x − x0)/b)) for percent injury: x = log-transformed herbicide rate (kg/ha), 14 DAT. It is filed as in vivo. The text has this:
Three E. indica biotypes from different locations were used in this study. The R1 biotype was collected in Country Club of Virginia, Richmond, Va., and the R2 biotype was from River Bend Golf, New Bern, N.C. These two biotypes were previous confirmed resistant to preemergence application of oxadiazon, but have not been screened to other PPO inhibitors. The S biotype was collected from the Alabama Agricultural Experiment Station, Plant Breeding Unit, Tallassee, Ala., which was confirmed susceptible to PPO inhibitors. Seeds of the mature plants were harvested, air dried and stored in the 4° C. freezer until planted in the greenhouse.
Greenhouse conditions were 30±3° C. at day/night temperature and ˜70% average relative humidity. The E. indica seeds were placed on the soil surface and lightly covered with sand in 28 cm*20 cm flats and watered as needed daily to ensure germination. Two weeks after emergence, seedlings were separated and transplanted to in individual 10-cm pots (volumes=0.5 L). Pots were filled with surface horizon of Marvyn sandy loam (fine-loamy, kaolinitic, thermic Typic Kanhapludults) soil with pH 6.4 and 1.2% organic matter. The plants were irrigated three times daily for 2 min with overhead irrigation and fertilized once at one week after transplanting at approximately 50 kg N ha^−1 with Scott's Miracle-Gro All-Purpose fertilizer (The Scotts Miracle-Gro Co. Marysville, Ohio). Plants were 5-10 cm in height with 3-5 tillers in size at the time of herbicide treatment.
Herbicide treatments were foliar-applied at 280 L/ha using an enclosed spray chamber with a single 8002E nozzle (TeeJet Spray Systems Co, Wheaton, Ill.) at 32 PSI. Four herbicides were selected for the experiment: oxadiazon (Ronstar FLO, Bayer Environmental Sci., Research Triangle Park, N.C.), sulfentrazone (Dismiss, FMC Corporation, Philadelphia, Pa.), flumioxazin (Sureguard, Valent Corp., Walnut Creek, Calif.) and lactofen (Cobra, Valent Corp., Walnut Creek, Calif.). All the herbicides are from different herbicide chemical families of PPO inhibitors: oxadiazoles, triazolinone, N-phenylphthalimide and diphenyl ether, respectively. Herbicides were applied at 7 different rates based on each herbicide label rate: oxadiazon ranging from 0.14 to 8.96 kg/ha, sulfentrazone from 0.07 to 4.50 kg/ha, flumioxazin from 0.08 to 5.70 kg/ha, and lactofen from 0.029 to 1.75 kg/ha. A non-treated control (0 kg/ha) was included. 192 plants of each biotype were tested and experiments were conducted as completely random design, three replications for two runs.
The visual injury rating scores per plant at 14 days after treatment (DAT) were recorded, where the visual injury rating scores were based on a 0 to 100 scale, which 0 is equated to no phytotoxicity and 100 is equated to complete control. Data subjected to ANOVA analysis at a significance level of P<0.05 using the PROC GLM procedure of SAS 9.4 (SAS Institute Inc., Cary, N.C.). All the herbicide rates were log transformed to make equal spacing between the herbicide treatments in order to facilitate regression analysis. The non-treated control was transformed to equal spacing based on the log rates of each herbicide, respectively. Data were fitted to a sigmoidal model using SigmaPlot 10.2 (Systat Software Inc., London, UK) using a sigmoidal function (Equation 1).
y=a/(1+e^(−((x−x0)/b))) (1)
In this fit sigmoidal model, where y represents E. indica visual damage relative to non-treated control (%), x represents the log-transformed herbicide rates (kg/ha), three parameters (a, b, x0) represents the y intercept.

Assay [4] deals with T1, recombinant variant E. indica PPO1 A212T. Put plainly: In vitro PPO enzyme activity inhibition, variant PPO1 A212T. It is filed as biochemical. Conditions: highest herbicide concentration 10^−5 M.
Where [5] appears, read: highest herbicide concentration 10^−5 M.
[6] abbreviates: recombinant enzyme, in vitro, read-out: Wild-type E. indica PPO1 sensitivity [IC50].

T1 sequence (A0A6G5XNV7 entry or part of it A212T): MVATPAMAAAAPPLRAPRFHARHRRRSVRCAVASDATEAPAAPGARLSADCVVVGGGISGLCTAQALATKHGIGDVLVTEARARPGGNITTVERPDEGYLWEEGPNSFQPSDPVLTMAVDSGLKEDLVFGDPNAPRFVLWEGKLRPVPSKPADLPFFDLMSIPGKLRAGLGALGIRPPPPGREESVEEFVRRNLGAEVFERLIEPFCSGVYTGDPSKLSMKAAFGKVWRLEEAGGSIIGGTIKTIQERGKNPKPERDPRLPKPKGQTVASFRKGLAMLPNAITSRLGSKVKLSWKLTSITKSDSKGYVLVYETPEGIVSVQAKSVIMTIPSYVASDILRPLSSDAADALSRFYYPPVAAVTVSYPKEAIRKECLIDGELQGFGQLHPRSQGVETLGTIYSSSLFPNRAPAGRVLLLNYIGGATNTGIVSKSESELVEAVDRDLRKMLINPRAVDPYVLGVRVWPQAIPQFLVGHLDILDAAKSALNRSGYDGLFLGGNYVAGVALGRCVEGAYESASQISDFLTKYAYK

As for `CC(C)N(C)S(=O)(=O)NC(=O)c1cc(-n2c(=O)cc(C(F)(F)F)n(C)c2=O)c(F)cc1Cl` [Saflufenacil, saflufenacil], the half-inhibitory concentration (IC50) (as a rule, the midpoint of a concentration-inhibition curve) in assay [1] is 0.449 µM; in assay [2] (setting [6]), 0.0194 µM. Besides, the inhibition at 10 µM in assay [1] and in assay [2] (setting [5]) was more than 90% each time.

With `Cc1nn(-c2cc(NS(C)(=O)=O)c(Cl)cc2Cl)c(=O)n1C(F)F` [Sulfentrazone, sulfentrazone], in assay [1], the half-inhibitory concentration (IC50) was determined as 1.87 µM and the inhibition (in general, the change of the read-out against control, counted positive when it falls) at 10 µM came out at 76%. In assay [3] (R1 biotype), the “I50, estimated rate required to reduce Eleusine indica biotype by 50% (Visual Control/Injury)” value is recorded as 0.15 kg ha^−1; the “I90, estimated rate required to reduce Eleusine indica biotype by 90% (Visual Control/Injury)” value is given as 0.32 kg ha^−1; the “Parameter estimate a of sigmoidal model y = a/(1 + exp(−(x − x0)/b)) for percent injury” value is reported as 95.12; the “Parameter estimate b of sigmoidal model y = a/(1 + exp(−(x − x0)/b)) for percent injury” value (“Parameter estimate b … for percent injury” for short) was 0.12. Also, in assay [3] (R1 biotype), the “Parameter estimate x0 of sigmoidal model y = a/(1 + exp(−(x − x0)/b)) for percent injury” value (from here on “Parameter estimate x0 … for percent injury”) is on record as −0.84. Moreover, in assay [3] (R2 biotype), the “I50, estimated rate required to reduce Eleusine indica biotype by 50% (Visual Control/Injury)” value was 0.18 kg ha^−1; the “I90, estimated rate required to reduce Eleusine indica biotype by 90% (Visual Control/Injury)” value is listed as 0.63 kg ha^−1; the “Parameter estimate a of sigmoidal model y = a/(1 + exp(−(x − x0)/b)) for percent injury” value is on record as 100.90; the “Parameter estimate b … for percent injury” value is recorded as 0.25. In addition, in assay [3] (R2 biotype), the “Parameter estimate x0 … for percent injury” value is given as −0.73. Further, in assay [3] (S biotype), the “I50, estimated rate required to reduce Eleusine indica biotype by 50% (Visual Control/Injury)” value is 0.08 kg ha^−1; the “I90, estimated rate required to reduce Eleusine indica biotype by 90% (Visual Control/Injury)” value is given as 0.19 kg ha^−1; the “Parameter estimate a of sigmoidal model y = a/(1 + exp(−(x − x0)/b)) for percent injury” value is recorded as 98.21; the “Parameter estimate b … for percent injury” value was 0.16. The “Parameter estimate x0 … for percent injury” value in assay [3] (S biotype) was −1.10. In addition, the IC50 in assay [2] was determined as 0.275 µM. In assay [2] (setting [5]), the inhibition at 10 µM was more than 90%.

As for `C#CCN1C(=O)C(F)(F)Oc2cc(F)c(-n3c(=O)n(C)c(=S)n(C)c3=O)cc21` [Trifludomoxazin, trifludimoxazin], in assay [4], the “Variant E. indica PPO1 A212T % inhibition” value was more than 90%. The IC50 in assay [1] (recombinant enzyme, in vitro, read-out: Variant E. indica PPO1 A212T sensitivity [IC50]) came out at 0.0265 µM; in assay [2] (setting [6]) it was 0.0171 µM. For the same molecule, the “Wild-type E. indica PPO1 % inhibition” value in assay [2] (setting [5]) is listed as more than 90%.
